Laboratory results reported in ChEMBL document CHEMBL1159226, “Xestobergsterol C, a new pentacyclic steroid from the Okinawan marine sponge Ircinia Sp. and absolute stereochemistry of xestobergsterol A” (J Nat Prod, 1995).
≈ marks a conversion by molar mass, not a printed value.

Test system: L1210
Experiment: Cytotoxicity against mouse L1210 cells
Format: functional, cell-based

| Compound | IC50 [µg/mL] |
| --- | --- |
| CC(C)C[C@@]1(O)C[C@@H](C)[C@H]2[C@@H]1C(=O)[C@H]1[C@@H]3[C@@H](O)[C@H](O)[C@H]4C[C@H](O)CC[C@]4(C)[C@H]3CC[C@]21C | 4 (≈ 8.92 µM) |
| CC(C)C[C@@]1(O)C[C@@H](C)[C@H]2[C@@H]1C(=O)[C@H]1[C@@H]3[C@@H](O)[C@H](O)[C@H]4C[C@H](O)[C@@H](O)C[C@]4(C)[C@H]3CC[C@]21C | 4.1 (≈ 8.82 µM) |
| CC(C)C[C@@]1(O)C[C@@H](C)[C@H]2[C@@H]1C(=O)[C@H]1[C@@H]3[C@@H](O)[C@H](O)[C@H]4C[C@H](O)[C@@H](O)[C@@H](O)[C@]4(C)[C@H]3CC[C@]21C | > 10 |
